Reference: ChEMBL document CHEMBL1158637, “Orally bioavailable dual MMP-1/MMP-14 sparing, MMP-13 selective alpha-sulfone hydroxamates” (Bioorg Med Chem Lett, 2010)
pIC50: −log10 of the molar value.

Key:
[1] = Selectivity ratio of IC50 for MMP2 to IC50 for MMP13
[2] = target: 72 kDa type IV collagenase (Homo sapiens, UniProt P08253); assay: Inhibition of MMP2
Interstitial collagenase = Interstitial collagenase (Homo sapiens, UniProt P03956); assay: Inhibition of MMP1
Stromelysin-1 = Stromelysin-1 (Homo sapiens, UniProt P08254); assay: Inhibition of MMP3
Chain of Stromelysin-1 (P08254 whole entry): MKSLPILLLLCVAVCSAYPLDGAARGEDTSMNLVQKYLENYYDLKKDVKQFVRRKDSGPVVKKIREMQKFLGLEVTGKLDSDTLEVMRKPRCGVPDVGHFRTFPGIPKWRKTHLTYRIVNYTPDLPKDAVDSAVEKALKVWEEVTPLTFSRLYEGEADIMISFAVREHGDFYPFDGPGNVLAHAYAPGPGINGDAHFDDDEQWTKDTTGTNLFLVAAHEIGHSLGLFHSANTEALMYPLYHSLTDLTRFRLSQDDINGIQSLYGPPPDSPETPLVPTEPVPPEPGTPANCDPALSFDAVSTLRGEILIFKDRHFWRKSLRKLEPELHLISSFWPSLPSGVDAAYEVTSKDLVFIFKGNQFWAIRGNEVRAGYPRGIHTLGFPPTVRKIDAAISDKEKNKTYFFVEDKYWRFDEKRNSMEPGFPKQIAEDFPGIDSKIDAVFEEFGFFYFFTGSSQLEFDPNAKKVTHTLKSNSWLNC

Matrilysin = target: T1, Matrilysin (Homo sapiens, UniProt P09237); assay: Inhibition of MMP7
T1 sequence (P09237 whole entry): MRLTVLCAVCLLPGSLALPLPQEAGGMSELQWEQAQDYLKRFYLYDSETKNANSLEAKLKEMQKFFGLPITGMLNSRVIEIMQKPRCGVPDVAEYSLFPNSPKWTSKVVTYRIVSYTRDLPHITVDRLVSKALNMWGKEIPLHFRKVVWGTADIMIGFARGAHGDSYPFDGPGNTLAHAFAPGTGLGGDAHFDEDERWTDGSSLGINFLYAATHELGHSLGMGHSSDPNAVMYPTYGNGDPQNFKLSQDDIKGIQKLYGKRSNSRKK

Neutrophil collagenase = Neutrophil collagenase (Homo sapiens, UniProt P22894); assay: Inhibition of MMP8
Chain of Neutrophil collagenase (P22894 whole entry): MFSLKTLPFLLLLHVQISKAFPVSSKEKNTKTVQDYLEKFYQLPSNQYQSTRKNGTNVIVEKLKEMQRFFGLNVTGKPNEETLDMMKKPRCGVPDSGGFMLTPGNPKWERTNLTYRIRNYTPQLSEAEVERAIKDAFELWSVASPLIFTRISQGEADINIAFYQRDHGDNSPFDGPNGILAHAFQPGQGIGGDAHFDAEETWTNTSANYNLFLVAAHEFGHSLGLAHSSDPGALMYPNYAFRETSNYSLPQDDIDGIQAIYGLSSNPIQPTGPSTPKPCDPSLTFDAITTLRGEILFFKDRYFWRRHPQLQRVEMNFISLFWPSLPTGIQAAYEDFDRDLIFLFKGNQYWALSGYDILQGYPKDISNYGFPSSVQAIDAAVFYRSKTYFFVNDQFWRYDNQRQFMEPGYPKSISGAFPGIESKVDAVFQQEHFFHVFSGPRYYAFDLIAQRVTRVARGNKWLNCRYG

Collagenase 3 = Collagenase 3 (Homo sapiens, UniProt P45452); assay: Inhibition of MMP13
[3] = Half life in rat; type: ADME, organism-based; conditions: in vivo
[4] = Oral bioavailability in rat; type: ADME, organism-based; conditions: in vivo

Chain of 72 kDa type IV collagenase (P08253 whole entry): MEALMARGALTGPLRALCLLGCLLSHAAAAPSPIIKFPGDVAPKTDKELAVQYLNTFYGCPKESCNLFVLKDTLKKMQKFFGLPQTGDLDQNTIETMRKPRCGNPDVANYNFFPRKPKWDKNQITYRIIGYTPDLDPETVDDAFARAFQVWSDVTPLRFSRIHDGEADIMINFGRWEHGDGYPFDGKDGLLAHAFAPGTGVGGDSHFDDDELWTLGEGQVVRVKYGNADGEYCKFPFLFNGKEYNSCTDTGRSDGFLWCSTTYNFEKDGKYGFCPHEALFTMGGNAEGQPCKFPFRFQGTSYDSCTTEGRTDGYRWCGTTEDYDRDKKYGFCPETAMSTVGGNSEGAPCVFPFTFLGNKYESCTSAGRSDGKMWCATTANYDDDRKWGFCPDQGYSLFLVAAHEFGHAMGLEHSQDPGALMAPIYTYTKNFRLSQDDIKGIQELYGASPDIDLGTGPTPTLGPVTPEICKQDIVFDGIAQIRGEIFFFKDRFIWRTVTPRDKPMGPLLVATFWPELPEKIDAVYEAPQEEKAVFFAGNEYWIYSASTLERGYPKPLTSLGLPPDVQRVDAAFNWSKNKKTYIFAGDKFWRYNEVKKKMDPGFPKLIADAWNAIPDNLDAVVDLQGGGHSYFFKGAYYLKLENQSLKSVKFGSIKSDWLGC
Chain of Interstitial collagenase (P03956 whole entry): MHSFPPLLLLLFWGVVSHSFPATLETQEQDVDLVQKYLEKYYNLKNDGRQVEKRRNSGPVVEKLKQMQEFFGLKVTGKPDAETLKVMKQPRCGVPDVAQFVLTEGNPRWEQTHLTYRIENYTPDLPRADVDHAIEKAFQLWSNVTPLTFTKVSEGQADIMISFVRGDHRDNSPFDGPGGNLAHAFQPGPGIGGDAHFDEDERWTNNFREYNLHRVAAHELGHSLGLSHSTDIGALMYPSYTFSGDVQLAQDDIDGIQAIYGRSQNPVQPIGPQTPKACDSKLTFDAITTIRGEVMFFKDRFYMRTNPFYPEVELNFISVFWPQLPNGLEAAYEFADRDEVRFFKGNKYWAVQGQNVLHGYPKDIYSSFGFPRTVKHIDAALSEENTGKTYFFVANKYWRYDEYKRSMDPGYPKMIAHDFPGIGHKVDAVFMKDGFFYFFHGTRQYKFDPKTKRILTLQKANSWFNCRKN

Compound	Ratio IC50 [1]	pIC50 [2]	pIC50 (Collagenase 3)	other results
O=C(NO)C1(S(=O)(=O)c2ccc(N3CCC(c4ccccc4C(F)(F)F)CC3)cc2)CCOCC1	31.3			
Cc1ccccc1N1CCN(c2ccc(S(=O)(=O)C3(C(=O)NO)CCOCC3)cc2)CC1	11.4			
O=C(NO)C1(S(=O)(=O)c2ccc(N3CCC(c4ccc(Cl)cc4)CC3)cc2)CCOCC1	2.9			
Cc1ccc(N2CCN(c3ccc(S(=O)(=O)C4(C(=O)NO)CCOCC4)cc3)CC2)cc1	18.4			
C#CCN1CCC(C(=O)NO)(S(=O)(=O)c2ccc(Sc3ccccc3)cc2)CC1		9.48		pIC50 (Interstitial collagenase): 5.06; pIC50 (Stromelysin-1): 7.89; pIC50 (Matrilysin): < 5.00; pIC50 (Neutrophil collagenase): 8.74
O=C(NO)C1(S(=O)(=O)c2ccc(N3CCC(c4ccccc4-c4ccc(F)cc4)CC3)cc2)CCOCC1	160			
O=C(NO)C1(S(=O)(=O)c2ccc(N3CCC(c4ccccc4)CC3)cc2)CCOCC1	0.7			
O=C(NO)C1(S(=O)(=O)c2ccc(N3CCC(c4ccccc4O)CC3)cc2)CCOCC1	6.2			
O=C(NO)C1(S(=O)(=O)c2ccc(N3CCN(c4ccccc4)CC3)cc2)CCOCC1	13.8			
COc1ccccc1N1CCN(c2ccc(S(=O)(=O)C3(C(=O)NO)CCOCC3)cc2)CC1	2.8			
O=C(NO)C1(S(=O)(=O)c2ccc(N3CCN(c4ccccc4F)CC3)cc2)CCOCC1	7.8			
O=C(NO)C1(S(=O)(=O)c2ccc(N3CCC(c4cccc5ccccc45)CC3)cc2)CCOCC1	43.9			
COc1cccc(N2CCN(c3ccc(S(=O)(=O)C4(C(=O)NO)CCOCC4)cc3)CC2)c1	6.1	7.31	8.10	
COc1ccc(C(C)C)cc1C1CCN(c2ccc(S(=O)(=O)C3(C(=O)NO)CCOCC3)cc2)CC1	143	< 5.00	7.15	
O=C(NO)C1(S(=O)(=O)c2ccc(N3CCC(c4ccccc4Cl)CC3)cc2)CCOCC1	1.9	7.09	7.37	
COc1ccccc1C1CCN(c2ccc(S(=O)(=O)C3(C(=O)NO)CCOCC3)cc2)CC1	211	5.43	7.76	
Cc1ccc(N2CCN(c3ccc(S(=O)(=O)C4(C(=O)NO)CCOCC4)cc3)CC2)c(C)c1	49	5.85	7.54	
Cc1ccccc1C1CCN(c2ccc(S(=O)(=O)C3(C(=O)NO)CCOCC3)cc2)CC1	21.4	6.15	7.49	
O=C(NO)C1(S(=O)(=O)c2ccc(N3CCN(c4ccccc4Cl)CC3)cc2)CCOCC1	4.4			
COc1ccc(N2CCN(c3ccc(S(=O)(=O)C4(C(=O)NO)CCOCC4)cc3)CC2)cc1	29	7.74	9.30	
O=C(NO)C1(S(=O)(=O)c2ccc(N3CCN(c4ccc(C(F)(F)F)cc4)CC3)cc2)CCN(C2CC2)CC1	13.6	7.49	8.62	
CCOc1ccccc1C1CCN(c2ccc(S(=O)(=O)C3(C(=O)NO)CCOCC3)cc2)CC1	88.6			
O=C(NO)C1(S(=O)(=O)c2ccc(N3CCN(c4cccc(C(F)(F)F)c4)CC3)cc2)CCOCC1	16.5	6.48	7.70	
O=C(NO)C1(S(=O)(=O)c2ccc(N3CCN(c4ccc(Cl)cc4)CC3)cc2)CCOCC1		8.43	9.00	pIC50 (Interstitial collagenase): < 5.00; pIC50 (Stromelysin-1): 6.89; pIC50 (Neutrophil collagenase): 6.00; half-life [3]: 1.91 h; bioavailability [4]: 7.4%
O=C(NO)C1(S(=O)(=O)c2ccc(N3CCN(c4ccc(C(F)(F)F)cc4)CC3)cc2)CCOCC1		7.92	9.22	pIC50 (Interstitial collagenase): < 5.00; pIC50 (Stromelysin-1): 6.52; pIC50 (Matrilysin): < 5.00; pIC50 (Neutrophil collagenase): 6.17; half-life [3]: 2.59 h; bioavailability [4]: 16.3%
O=C(NO)C1(S(=O)(=O)c2ccc(N3CCN(c4ccccc4)CC3)cc2)CCN(C2CC2)CC1	1.6	8.27	8.48	
COc1ccc(N2CCN(c3ccc(S(=O)(=O)C4(C(=O)NO)CCN(C5CC5)CC4)cc3)CC2)cc1		8.28	9.38	pIC50 (Interstitial collagenase): < 5.00; pIC50 (Stromelysin-1): 7.61; pIC50 (Neutrophil collagenase): 7.23; half-life [3]: 0.24 h; bioavailability [4]: 20.7%
COc1ccc(OC)c(C2CCN(c3ccc(S(=O)(=O)C4(C(=O)NO)CCOCC4)cc3)CC2)c1	70.2	6.10	7.94	
COc1ccc(C2CCN(c3ccc(S(=O)(=O)C4(C(=O)NO)CCOCC4)cc3)CC2)c(C)c1	72.1			
COc1ccc(C2CCN(c3ccc(S(=O)(=O)C4(C(=O)NO)CCOCC4)cc3)CC2)c(OC)c1	159			
